Measurements from patent US12310975B2, “Modulators of BCL6 proteolysis and associated methods of use” (Arvinas Operations, Inc., priority 2019, dated 2025).

Target: BCL6 (Homo sapiens (Human), UniProt P41182)
Test: Immunofluorescence high content imaging of BCL6 degradation in T47D cells
Assay type: cell-based
Details: for Dmax: T47D
In short: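 Seed T47D in RPMI1640-10% FBS to reach ~70-90% confluence at endpoint; add degrader next day (11-point 3-fold series, top 0.1 or 1 μM final) for 3 days. Then fix, permeabilize, stain BCL6 with nuclear Hoechst, and image.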

Compound	IC50	Dmax
CN1CC[C@@H](Oc2cc3cc(Nc4nc(N5CCC(CN6CCN(c7ccc8c(c7)C(=O)N(C7CCC(=O)NC7=O)C8=O)CC6)CC5)ncc4Cl)ccc3n(C)c2=O)C1=O (stereo partly drawn) [compound 258, 5-(4-((1-(5-chloro-4-((1-methyl-3-(((R)-1-methyl-2-oxopyrrolidin-3-yl)oxy)-2-oxo-1,2-dihydroquinolin-6-yl)amino)pyrimidin-2-yl)piperidin-4-yl)methyl)piperazin-1-yl)-2-(2,6-dioxopiperidin-3-yl)isoindoline-1,3-dione]	≥ 100 nM	
CN1CC[C@H](Oc2cc3cc(Nc4nc(N5CCC(CN6CCN(c7ccc8c(c7)C(=O)N(C7CCC(=O)NC7=O)C8=O)CC6)CC5)ncc4Cl)ccc3n(C)c2=O)C1=O (stereo partly drawn) [compound 259, 5-(4-((1-(5-chloro-4-((1-methyl-3-(((S)-1-methyl-2-oxopyrrolidin-3-yl)oxy)-2-oxo-1,2-dihydroquinolin-6-yl)amino)pyrimidin-2-yl)piperidin-4-yl)methyl)piperazin-1-yl)-2-(2,6-dioxopiperidin-3-yl)isoindoline-1,3-dione]	≥ 100 nM	< 50%
CONC(=O)COc1cc2cc(Nc3cc(N4CCN(C(C)(C)C5CCN(c6ccc7c(c6)C(=O)N(C6CCC(=O)NC6=O)C7=O)CC5)CC4)ncc3Cl)ccc2n(C)c1=O (stereo not shown) [compound 265, 2-((6-((5-chloro-2-(4-(2-(1-(2-(2,6-dioxopiperidin-3-yl)-1,3-dioxoisoindolin-5-yl)piperidin-4-yl)propan-2-yl)piperazin-1-yl)pyridin-4-yl)amino)-1-methyl-2-oxo-1,2-dihydroquinolin-3-yl)oxy)-N-methoxyacetamide]	10 to 50 nM	50 to 70%
Cn1c(=O)c(-c2nnc[nH]2)cc2cc(Nc3nc(N4CCC(CN5CCN(c6ccc7c(c6)C(=O)N(C6CCC(=O)NC6=O)C7=O)CC5)CC4)ncc3Cl)ccc21 (stereo not shown) [compound 282, 5-(4-{[1-(5-chloro-4-{[1-methyl-2-oxo-3-(4H-1,2,4-triazol-3-yl)-1,2-dihydroquinolin-6-yl]amino}pyrimidin-2-yl)piperidin-4-yl]methyl}piperazin-1-yl)-2-(2,6-dioxopiperidin-3-yl)-2,3-dihydro-1H-isoindole-1,3-dione]	≥ 100 nM	
CNC(=O)COc1cc2cc(Nc3nc(N4CCC(CN5CCC(n6cnc7c(C(=O)NC8CCC(=O)NC8=O)cccc76)CC5)CC4)ncc3Cl)ccc2n(C)c1=O (stereo not shown) [compound 283, 1-[1-({1-[5-chloro-4-({1-methyl-3-[(methylcarbamoyl)methoxy]-2-oxo-1,2-dihydroquinolin-6-yl}amino)pyrimidin-2-yl]piperidin-4-yl}methyl)piperidin-4-yl]-N-(2,6-dioxopiperidin-3-yl)-1H-1,3-benzodiazole-4-carboxamide]	≥ 100 nM	
CNC(=O)COc1cc2cc(Nc3nc(N4C[C@@H](C)N(CC5CCN(c6ccc(C(=O)NC7CCC(=O)NC7=O)c(F)c6)CC5)[C@@H](C)C4)ncc3Cl)ccc2n(C)c1=O (stereo partly drawn) [compound 284, 4-(4-{[(2R,6S)-4-[5-chloro-4-({1-methyl-3-[(methylcarbamoyl)methoxy]-2-oxo-1,2-dihydroquinolin-6-yl}amino)pyrimidin-2-yl]-2,6-dimethylpiperazin-1-yl]methyl}piperidin-1-yl)-N-(2,6-dioxopiperidin-3-yl)-2-fluorobenzamide]	10 to 50 nM	< 50%
Cc1nnc(-c2cc3cc(Nc4nc(N5CCN(C(C)(C)C6CCN(c7ccc8c(c7)C(=O)N(C7CCC(=O)NC7=O)C8=O)CC6)CC5)ncc4Cl)ccc3n(C)c2=O)o1 (stereo not shown) [compound 285, 5-(4-{2-[4-(5-chloro-4-{[1-methyl-3-(5-methyl-1,3,4-oxadiazol-2-yl)-2-oxo-1,2-dihydroquinolin-6-yl]amino}pyrimidin-2-yl)piperazin-1-yl]propan-2-yl}piperidin-1-yl)-2-(2,6-dioxopiperidin-3-yl)-2,3-dihydro-1H-isoindole-1,3-dione]	10 to 50 nM	< 50%
CNC(=O)COc1cc2cc(Nc3nc(N4CCC(CN5CCC(c6coc(C(=O)NC7CCC(=O)NC7=O)c6)CC5)CC4)ncc3Cl)ccc2n(C)c1=O (stereo not shown) [compound 286, 4-[1-({1-[5-chloro-4-({1-methyl-3-[(methylcarbamoyl)methoxy]-2-oxo-1,2-dihydroquinolin-6-yl}amino)pyrimidin-2-yl]piperidin-4-yl}methyl)piperidin-4-yl]-N-(2,6-dioxopiperidin-3-yl)furan-2-carboxamide]	50 to 100 nM	< 50%

Further lines, results first:

IC50	Dmax	Compound
< 10 nM	50 to 70%	CNC(=O)COc1cc2cc(Nc3nc(N4CCC(CCOC5CN(c6cccc7c6C(=O)N(C6CCC(=O)NC6=O)C7=O)C5)CC4)ncc3Cl)ccc2n(C)c1=O (stereo not shown) [compound 252, 2-((6-((5-chloro-2-(4-(2-((1-(2-(2,6-dioxopiperidin-3-yl)-1,3-dioxoisoindolin-4-yl)azetidin-3-yl)oxy)ethyl)piperidin-1-yl)pyrimidin-4-yl)amino)-1-methyl-2-oxo-1,2-dihydroquinolin-3-yl)oxy)-N-methylacetamide]
	≥ 70%	CNC(=O)COc1cc2cc(Nc3cc(N4CCN(CC5CCN(c6ccc7c(c6)C(=O)N(C6CCC(=O)NC6=O)C7=O)CC5)CC4)ncc3Cl)ccc2n(C)c1=O (stereo not shown) [compound 253, 2-((6-((5-chloro-2-(4-((1-(2-(2,6-dioxopiperidin-3-yl)-1,3-dioxoisoindolin-5-yl)piperidin-4-yl)methyl)piperazin-1-yl)pyridin-4-yl)amino)-1-methyl-2-oxo-1,2-dihydroquinolin-3-yl)oxy)-N-methylacetamide]
≥ 100 nM		CNC(=O)COc1cc2cc(Nc3nc(N4CCN(CC5CCN(c6ccc7c(c6)C(=O)N(C6CCC(=O)NC6=O)C7=O)CC5)CC4)c(Cl)cc3Cl)ccc2n(C)c1=O (stereo not shown) [compound 254, 2-((6-((3,5-dichloro-6-(4-((1-(2-(2,6-dioxopiperidin-3-yl)-1,3-dioxoisoindolin-5-yl)piperidin-4-yl)methyl)piperazin-1-yl)pyridin-2-yl)amino)-1-methyl-2-oxo-1,2-dihydroquinolin-3-yl)oxy)-N-methylacetamide]
< 10 nM	< 50%	CNC(=O)COc1cc2cc(Nc3nc(N4CCC(OC5CN(c6cccc7c6C(=O)N(C6CCC(=O)NC6=O)C7=O)C5)CC4)ncc3Cl)ccc2n(C)c1=O (stereo not shown) [compound 255, 2-((6-((5-chloro-2-(4-((1-(2-(2,6-dioxopiperidin-3-yl)-1,3-dioxoisoindolin-4-yl)azetidin-3-yl)oxy)piperidin-1-yl)pyrimidin-4-yl)amino)-1-methyl-2-oxo-1,2-dihydroquinolin-3-yl)oxy)-N-methylacetamide]
< 10 nM	50 to 70%	CNC(=O)COc1cc2cc(Nc3nc(N4CCC(CN5CC6(C5)CN(c5cccc7c5C(=O)N(C5CCC(=O)NC5=O)C7=O)C6)CC4)ncc3Cl)ccc2n(C)c1=O (stereo not shown) [compound 256, 2-((6-((5-chloro-2-(4-((6-(2-(2,6-dioxopiperidin-3-yl)-1,3-dioxoisoindolin-4-yl)-2,6-diazaspiro[3.3]heptan-2-yl)methyl)piperidin-1-yl)pyrimidin-4-yl)amino)-1-methyl-2-oxo-1,2-dihydroquinolin-3-yl)oxy)-N-methylacetamide]
10 to 50 nM	≥ 70%	CC(=O)COc1cc2cc(Nc3nc(N4CCN(C(C)(C)C5CCN(c6ccc7c(c6)C(=O)N(C6CCC(=O)NC6=O)C7=O)CC5)CC4)ncc3Cl)ccc2n(C)c1=O (stereo not shown) [compound 257, 5-(4-(2-(4-(5-chloro-4-((1-methyl-2-oxo-3-(2-oxopropoxy)-1,2-dihydroquinolin-6-yl)amino)pyrimidin-2-yl)piperazin-1-yl)propan-2-yl)piperidin-1-yl)-2-(2,6-dioxopiperidin-3-yl)isoindoline-1,3-dione]
10 to 50 nM	≥ 70%	CNC(=O)COc1cc2cc(Nc3nc(N4CCC(CN5CCN(c6cccc7c6C(=O)N(C6CCC(=O)NC6=O)C7=O)CC5)CC4)ncc3Cl)ccc2n(C)c1=O (stereo not shown) [compound 260, 2-((6-((5-chloro-2-(4-((4-(2-(2,6-dioxopiperidin-3-yl)-1,3-dioxoisoindolin-4-yl)piperazin-1-yl)methyl)piperidin-1-yl)pyrimidin-4-yl)amino)-1-methyl-2-oxo-1,2-dihydroquinolin-3-yl)oxy)-N-methylacetamide]
< 10 nM	≥ 70%	CNC(=O)CNc1cc2cc(Nc3nc(N4CCN(CC5CCN(c6ccc7c(c6)C(=O)N(C6CCC(=O)NC6=O)C7=O)CC5)CC4)ncc3Cl)ccc2n(C)c1=O (stereo not shown) [compound 262, 2-((6-((5-chloro-2-(4-((1-(2-(2,6-dioxopiperidin-3-yl)-1,3-dioxoisoindolin-5-yl)piperidin-4-yl)methyl)piperazin-1-yl)pyrimidin-4-yl)amino)-1-methyl-2-oxo-1,2-dihydroquinolin-3-yl)amino)-N-methylacetamide]
< 10 nM	≥ 70%	CNC(=O)COc1cc2cc(Nc3nc(N4CCC(OC5CCN(c6cccc7c6C(=O)N(C6CCC(=O)NC6=O)C7=O)CC5)CC4)ncc3Cl)ccc2n(C)c1=O (stereo not shown) [compound 264, 2-((6-((5-chloro-2-(4-((1-(2-(2,6-dioxopiperidin-3-yl)-1,3-dioxoisoindolin-4-yl)piperidin-4-yl)oxy)piperidin-1-yl)pyrimidin-4-yl)amino)-1-methyl-2-oxo-1,2-dihydroquinolin-3-yl)oxy)-N-methylacetamide]
< 10 nM	≥ 70%	CNC(=O)COc1cc2cc(Nc3nc(N4CCN(C(C)(C)C5CCN(c6cccc7c6C(=O)N(C6CCC(=O)NC6=O)C7=O)CC5)CC4)ncc3Cl)ccc2n(C)c1=O (stereo not shown) [compound 266, 2-((6-((5-chloro-2-(4-(2-(1-(2-(2,6-dioxopiperidin-3-yl)-1,3-dioxoisoindolin-4-yl)piperidin-4-yl)propan-2-yl)piperazin-1-yl)pyrimidin-4-yl)amino)-1-methyl-2-oxo-1,2-dihydroquinolin-3-yl)oxy)-N-methylacetamide]
